Reference: ChEMBL document CHEMBL1124434, “2H-[1]benzopyrano[3,4-b]pyridines: synthesis and activity at central monoamine receptors” (J Med Chem, 1989)

Key:
[1] = biological target: T1, 5-hydroxytryptamine receptor 1A (Rattus norvegicus, UniProt P19327); test: (§1) Concentration necessary to achieve half maximal inhibition of [3H]8-Hydroxy-2-(di-n-propylamino)tetralin binding to 5-hydroxytryptamine 1A receptor at 1 uM
T1 sequence (P19327 whole entry): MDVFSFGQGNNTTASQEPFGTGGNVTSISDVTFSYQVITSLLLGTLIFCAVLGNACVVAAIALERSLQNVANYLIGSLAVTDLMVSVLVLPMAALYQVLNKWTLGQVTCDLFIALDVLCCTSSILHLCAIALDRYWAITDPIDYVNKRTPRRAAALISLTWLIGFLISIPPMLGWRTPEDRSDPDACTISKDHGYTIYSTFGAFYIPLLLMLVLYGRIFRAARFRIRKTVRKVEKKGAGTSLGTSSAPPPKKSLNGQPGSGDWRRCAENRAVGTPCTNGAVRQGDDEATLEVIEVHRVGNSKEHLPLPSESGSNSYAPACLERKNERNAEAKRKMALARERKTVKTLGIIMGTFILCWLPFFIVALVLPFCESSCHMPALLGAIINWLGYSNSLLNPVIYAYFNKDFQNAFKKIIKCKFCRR

[2] = biological target: 5-hydroxytryptamine receptor 1B (Rattus norvegicus) (UniProt P28564); test: (§2) Concentration necessary to achieve half maximal inhibition of [125I]- Iodocyanopindolol binding to 5-hydroxytryptamine 1B receptor at 1 uM
5-hydroxytryptamine receptor 1B (Rattus norvegicus), sequence (P28564 whole entry): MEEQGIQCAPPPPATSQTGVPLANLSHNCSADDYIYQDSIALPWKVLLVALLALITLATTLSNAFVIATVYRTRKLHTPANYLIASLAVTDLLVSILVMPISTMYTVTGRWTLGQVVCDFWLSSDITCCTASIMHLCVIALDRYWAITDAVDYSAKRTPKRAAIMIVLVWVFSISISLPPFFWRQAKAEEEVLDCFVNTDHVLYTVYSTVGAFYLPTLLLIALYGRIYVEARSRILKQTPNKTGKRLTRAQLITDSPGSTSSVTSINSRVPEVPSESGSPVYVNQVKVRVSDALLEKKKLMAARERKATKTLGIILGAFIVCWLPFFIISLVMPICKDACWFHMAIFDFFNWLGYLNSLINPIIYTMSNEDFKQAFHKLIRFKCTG

[3] = biological target: T2, Serotonin 2 (5-HT2) receptor (Rattus norvegicus, UniProt P30994+P08909+P14842); test: (§3) Concentration necessary to achieve half maximal inhibition of [3H]ketanserin binding to 5-hydroxytryptamine 2 receptor at 1 uM; type: protein assay
[4] = biological target: T3, Alpha-2A adrenergic receptor (Bos taurus, UniProt Q28838); test: Concentration necessary to achieve half maximal inhibition of [3H]clonidine binding to alpha-2 adrenergic receptor at 1 uM
T3 sequence (Q28838 whole entry): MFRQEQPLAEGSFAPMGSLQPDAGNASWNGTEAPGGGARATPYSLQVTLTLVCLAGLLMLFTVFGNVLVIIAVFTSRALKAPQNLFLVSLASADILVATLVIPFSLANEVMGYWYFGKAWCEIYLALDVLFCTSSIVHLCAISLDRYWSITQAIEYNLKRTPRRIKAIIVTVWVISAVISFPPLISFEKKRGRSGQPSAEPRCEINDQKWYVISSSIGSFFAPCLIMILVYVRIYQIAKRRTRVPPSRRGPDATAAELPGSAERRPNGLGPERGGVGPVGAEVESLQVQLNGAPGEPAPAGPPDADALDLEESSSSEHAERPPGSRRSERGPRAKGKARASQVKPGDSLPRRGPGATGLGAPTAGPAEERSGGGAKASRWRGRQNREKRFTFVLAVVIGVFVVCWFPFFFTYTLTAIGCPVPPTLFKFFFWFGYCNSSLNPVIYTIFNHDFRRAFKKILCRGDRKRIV

[5] = biological target: T4, Dopamine receptor (Bos taurus) (UniProt Q95136+P20288); test: (§4) Concentration necessary to achieve half maximal inhibition of [3H](+)-[…]-6,7-dihydroxy-1,2,3,4-tetrahydronaphthalene binding to dopamine receptor at 1 uM; type: protein assay
[6] = biological target: T4, Dopamine receptor (Bos taurus); test: (§5) Concentration necessary to achieve half maximal inhibition of [3H]spiperone binding dopamine receptor at 1 uM; type: protein assay
[7] = biological target: T5, 5-hydroxytryptamine receptor 1B (Rattus norvegicus, UniProt P28564); test: as §2
T5 sequence (P28564 whole entry): as the sequence (P28564 whole entry) above

[8] = biological target: T6, Alpha-2A adrenergic receptor (Bos taurus) (UniProt Q28838); test: Concentration necessary to achieve half maximal inhibition of [3H]clonidine binding to alpha-2 adrenergic receptorat 1 uM
T6 sequence (whole entry): T3 sequence (Q28838 whole entry)

[9] = biological target: T2, Serotonin 2 (5-HT2) receptor; test: Concentration necessary to achieve half maximal inhibition of [3H]-ketanserin binding to 5-hydroxytryptamine 2 receptor; type: protein assay
[10] = biological target: T7, Dopamine receptor (Bos taurus, UniProt Q95136+P20288); test: as §4; type: protein assay
[11] = biological target: T7, Dopamine receptor; test: as §5; type: protein assay
[12] = biological target: T8, Serotonin 2 (5-HT2) receptor (Rattus norvegicus) (UniProt P30994+P08909+P14842); test: as §3; type: protein assay
T8 sequence (P08909 whole entry, looked up): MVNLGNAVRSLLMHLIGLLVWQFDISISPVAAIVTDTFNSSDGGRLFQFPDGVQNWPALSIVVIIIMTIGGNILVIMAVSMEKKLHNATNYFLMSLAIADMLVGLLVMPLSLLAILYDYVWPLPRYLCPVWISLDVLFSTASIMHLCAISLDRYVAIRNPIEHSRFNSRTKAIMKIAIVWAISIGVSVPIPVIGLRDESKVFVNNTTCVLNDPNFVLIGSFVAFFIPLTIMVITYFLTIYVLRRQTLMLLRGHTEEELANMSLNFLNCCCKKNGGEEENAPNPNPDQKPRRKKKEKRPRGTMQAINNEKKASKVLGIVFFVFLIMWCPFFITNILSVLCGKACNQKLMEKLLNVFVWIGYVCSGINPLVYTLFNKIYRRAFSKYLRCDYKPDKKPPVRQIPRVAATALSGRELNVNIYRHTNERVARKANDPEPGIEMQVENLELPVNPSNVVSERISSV
T8 sequence (P14842 whole entry, looked up): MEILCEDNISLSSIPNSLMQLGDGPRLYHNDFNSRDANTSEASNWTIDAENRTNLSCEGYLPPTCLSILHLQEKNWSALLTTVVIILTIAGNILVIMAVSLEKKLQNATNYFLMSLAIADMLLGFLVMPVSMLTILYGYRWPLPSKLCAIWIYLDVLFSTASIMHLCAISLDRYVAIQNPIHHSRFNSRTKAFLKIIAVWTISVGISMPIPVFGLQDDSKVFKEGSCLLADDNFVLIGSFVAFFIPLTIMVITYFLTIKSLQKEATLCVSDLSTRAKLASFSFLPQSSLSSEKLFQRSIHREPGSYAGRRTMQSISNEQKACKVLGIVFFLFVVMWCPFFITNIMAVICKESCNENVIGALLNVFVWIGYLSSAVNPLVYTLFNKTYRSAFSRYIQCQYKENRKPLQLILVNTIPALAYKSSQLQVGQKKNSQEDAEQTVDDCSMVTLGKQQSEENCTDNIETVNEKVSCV
T8 sequence (P30994 whole entry, looked up): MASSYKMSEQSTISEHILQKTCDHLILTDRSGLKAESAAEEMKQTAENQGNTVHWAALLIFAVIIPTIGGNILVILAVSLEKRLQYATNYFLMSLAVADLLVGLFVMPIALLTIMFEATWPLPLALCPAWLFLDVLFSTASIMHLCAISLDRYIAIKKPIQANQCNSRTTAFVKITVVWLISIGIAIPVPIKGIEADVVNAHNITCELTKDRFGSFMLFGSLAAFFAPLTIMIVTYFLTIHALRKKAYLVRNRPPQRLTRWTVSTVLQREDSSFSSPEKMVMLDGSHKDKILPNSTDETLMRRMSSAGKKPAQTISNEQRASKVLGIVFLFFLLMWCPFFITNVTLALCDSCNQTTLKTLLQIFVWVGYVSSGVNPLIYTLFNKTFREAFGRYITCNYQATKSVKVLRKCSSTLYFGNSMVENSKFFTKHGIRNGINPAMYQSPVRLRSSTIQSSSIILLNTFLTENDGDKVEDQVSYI

[13] = biological target: T5, 5-hydroxytryptamine receptor 1B; test: Concentration necessary to achieve half maximal inhibition of [125I]- Iodocyanopindolol, binds to 5-hydroxytryptamine 1B receptor at 1 uM
[14] = biological target: T2, Serotonin 2 (5-HT2) receptor; test: (§6) Concentration necessary to achieve half maximal inhibition of [3H]ketanserin, binds to 5-hydroxytryptamine 2 receptor at 1 uM; type: protein assay
[15] = biological target: T9, 5-hydroxytryptamine receptor 1A (Rattus norvegicus) (UniProt P19327); test: as §1
T9 sequence (whole entry): T1 sequence (P19327 whole entry)

[16] = biological target: T3, Alpha-2A adrenergic receptor
Description: Concentration necessary to achieve half maximal inhibition of [3H]clonidine binding to Alpha-2 adrenergic receptor at 1 uM

[17] = biological target: T8, Serotonin 2 (5-HT2) receptor (Rattus norvegicus); test: as §6; type: protein assay

## CCCN1CCC[C@@H]2c3c(OC)cccc3OC[C@H]21
[1]
  IC50: 9 nM
[2]
  Change: -19%
[3]
  IC50: 114 nM
[4]
  IC50: 71 nM
[5]
  Change: -9%
[6]
  Change: -53%

## COc1cc(C)cc2c1[C@H]1CCCN(C)[C@@H]1CO2
[1]
  IC50: 75 nM
[7]
  IC50: 825 nM
[3]
  IC50: 42 nM
[4]
  IC50: 946 nM
[5]
  Change: -11%
[6]
  Change: -39%

## COc1cccc2c1OC[C@@H]1[C@@H]2CCCN1C
[1]
  IC50: 253 nM
[2]
  inhibition: 7%
[3]
  IC50: 920 nM
[8]
  Change: -24%
[5]
  Change: -23%
[6]
  Change: -22%

## CN(C)CCCSc1ccccc1NC(=O)/C=C/c1ccccc1 [CINANSERIN]
[3]
  IC50: 2 nM

## Cc1ccc(O)c2c1[C@H]1CCCN(C)[C@@H]1CO2
[1]
  IC50: 76 nM
[2]
  Change: -10%
[9]
  IC50: 97 nM
[4]
  IC50: 1020 nM
[10]
  IC50: 26 nM
[11]
  IC50: 170 nM

## COc1ccc(C)c2c1OC[C@@H]1[C@@H]2CCCN1C
[1]
  IC50: 19 nM
[2]
  Change: -35%
[12]
  Change: -44%
[8]
  Change: -12%
[5]
  Change: -6%
[6]
  Change: -15%

## CCCN1CCC=C2c3c(OC)cccc3OCC21 (stereo unspecified)
[1]
  IC50: 1.8 nM
[13]
  IC50: 1320 nM
[14]
  IC50: 839 nM
[4]
  IC50: 151 nM
[5]
  Change: -13%
[6]
  Change: -36%

## CN1CCC[C@@H]2c3cc(O)ccc3OC[C@H]21
[15]
  Change: -13%
[2]
  Change: 6%
[12]
  Change: -27%
[8]
  Change: -64%
[10]
  IC50: 114 nM
[11]
  IC50: 4080 nM

## Clc1cccc(Cl)c1N=C1NCCN1 [CLONIDINE]
[16]
  IC50: 2 nM

## CCCN1CCC[C@@H]2c3cc(O)ccc3OC[C@H]21
[1]
  IC50: 1210 nM
[2]
  Change: -1%
[12]
  Change: -30%
[4]
  IC50: 559 nM
[10]
  IC50: 9 nM
[11]
  IC50: 1260 nM

## CCCN1CCC=C2c3ccccc3OCC21 (stereo unspecified)
[1]
  IC50: 74 nM
[2]
  Change: -11%
[12]
  Change: -22%
[4]
  IC50: 208 nM
[5]
  Change: -15%
[6]
  Change: -13%

## CCCN1CCC[C@@H]2c3ccc(O)cc3OC[C@H]21
[15]
  Change: -17%
[2]
  Change: -1%
[12]
  Change: -14%
[4]
  IC50: 249 nM
[10]
  IC50: 16 nM
[11]
  IC50: 4830 nM

## CN1CCC=C2c3cc(O)ccc3OCC21 (stereo unspecified)
[15]
  Change: -42%
[2]
  Change: -6%
[12]
  Change: -32%
[10]
  IC50: 20 nM
[6]
  inhibition: 3%

## CCCN1CCC=C2c3cccc(O)c3OCC21 (stereo unspecified)
[15]
  Change: -36%
[2]
  Change: -1%
[12]
  Change: -14%
[8]
  Change: -34%
[5]
  Change: -10%
[6]
  Change: -17%

## CCCN1CCC[C@@H]2c3c(O)cccc3OC[C@H]21
[1]
  IC50: 4 nM
[2]
  Change: -4%
[3]
  IC50: 384 nM
[4]
  IC50: 362 nM
[5]
  Change: -12%
[6]
  Change: -23%

## CCCN1CCC[C@@H]2c3cccc(O)c3OC[C@H]21
[1]
  IC50: 1000 nM
[2]
  Change: -2%
[3]
  IC50: 1100 nM
[4]
  IC50: 77 nM
[10]
  IC50: 30 nM
[11]
  IC50: 260 nM

## FC(F)(F)c1cccc(N2CCNCC2)c1
[7]
  IC50: 51 nM

## CN1CCC[C@@H]2c3cccc(O)c3OC[C@H]21
[15]
  Change: -45%
[2]
  Change: -2%
[3]
  IC50: 1260 nM
[8]
  Change: -41%
[10]
  IC50: 11 nM
[6]
  Change: -46%

## CCCN1CCC[C@@H]2c3c(OC)cc(C)cc3OC[C@H]21
[1]
  IC50: 186 nM
[2]
  Change: -31%
[14]
  IC50: 86 nM
[4]
  IC50: 504 nM
[5]
  Change: -15%
[6]
  Change: -36%

## CCCN1CCC=C2c3cc(O)ccc3OCC21 (stereo unspecified)
[1]
  IC50: 244 nM
[2]
  Change: 0%
[12]
  Change: -14%
[4]
  IC50: 634 nM
[10]
  IC50: 51 nM
[11]
  IC50: 4190 nM

## CCCN1CCC[C@@H]2c3ccccc3OC[C@H]21
[1]
  IC50: 219 nM
[2]
  Change: -10%
[14]
  IC50: 178 nM
[4]
  IC50: 88 nM
[5]
  Change: -24%
[6]
  Change: -19%

## CCCCN1CCC[C@@H]2c3cccc(O)c3OC[C@H]21
[1]
  IC50: 1200 nM
[2]
  Change: 0%
[17]
  Change: -40%
[4]
  IC50: 39 nM
[10]
  IC50: 8 nM
[11]
  IC50: 260 nM
